Results on seven molecules are retold here after patent US6713455B2, “6-O-carbamate-11,12-lacto-ketolide antimicrobials” (Ortho-McNeil Pharmaceutical, Inc., priority 2001, dated 2004).

SMILES strings stand for the structures. In brackets after ≈: the same amount, converted by molar mass.

Common to all, as to assay: MIC, microdilution broth method (NCCLS)
Holding throughout (format): cell-based
Holding throughout (settings): 35° C., 16-20 hours
(In general: Dilution methods test growth across graded concentrations, often in twofold steps.)

Test [1] deals with E. coli OC2605. How it is done:
(§1) Minimal inhibitory concentration (MIC) has been an indicator of in vitro antibacterial activity widely used in the art. The in vitro antimicrobial activity of the compounds was determined by the microdilution broth method following the test method from the National Committee for Clinical Laboratory Standards (NCCLS). This method is described in the NCCLS Document M7-A4, Vol.17, No.2, “Methods for Dilution Antimicrobial Susceptibility Test for Bacteria that Grow Aerobically—Fourth Edition”, which is incorporated herein by reference.
(§2) In this method two-fold serial dilutions of drug in cation adjusted Mueller-Hinton broth are added to wells in microdilution trays. The test organisms are prepared by adjusting the turbidity of actively growing broth cultures so that the final concentration of test organism after it is added to the wells is approximately 5×10^4 CFU/well.
(§3) Following inoculation of the microdilution trays, the trays are incubated at 35° C. for 16-20 hours and then read. […] The amount of growth in the wells containing the test compound is compared with the amount of growth in the growth-control wells (no test compound) used in each tray. As set forth in Table 1, compounds of the present invention were tested against a variety of Gram positive and Gram negative pathogenic bacteria resulting in a range of activities depending on the organism tested.

Test [2] relates to S. pneumoniae ATCC49619. How it is done: as §1, §2, §3
Test [3] has as its system S. aureus ATCC29213. The procedure: as §1, §2, §3
For test [4], the system named is H. influenzae ATCC49247. The procedure: as §1, §2, §3
Test [5] concerns E. faecalis ATCC29212. The procedure: as §1, §2, §3

On to `CCC1OC(=O)C(C)C(=O)C(C)C(OC2OC(C)CC(N(C)C)C2O)C(C)(OC(=O)NCC=Cc2cccnc2)CC(C)C(=O)C(C)C2CC(=O)OC12C` (centres unmarked) [Compound 34], for which the “MIC (μg/mL) A” value in test [1] is >16 µg/mL. In addition, the “MIC (μg/mL) D” value in test [2] was 0.06 µg/mL (≈ 0.0792 µM). Also, the “MIC (μg/mL) B” value in test [3] worked out at 0.5 µg/mL (≈ 0.66 µM). The “MIC (μg/mL) E” value in test [4] came to 2 µg/mL (≈ 2.64 µM). The “MIC (μg/mL) C” value in test [5] is 0.12 µg/mL (≈ 0.158 µM).
As to `CCC1OC(=O)C(C)C(=O)C(C)C(OC2OC(C)CC(N(C)C)C2O)C(C)(OC(=O)NCC=Cc2ccc(-c3ccccc3)nc2)CC(C)C(=O)C(C)C2CC(=O)OC12C` (centres unmarked) [Compound 35], the “MIC (μg/mL) A” value in test [1] is >16 µg/mL. In test [2], the “MIC (μg/mL) D” value is 0.12 µg/mL (≈ 0.144 µM). The “MIC (μg/mL) B” value in test [3] turned out to be 0.5 µg/mL (≈ 0.6 µM). In addition, in test [4], the “MIC (μg/mL) E” value is 4 µg/mL (≈ 4.8 µM). In addition, the “MIC (μg/mL) C” value in test [5] is 0.25 µg/mL (≈ 0.3 µM).
For the molecule `CCC1OC(=O)C(C)C(=O)C(C)C(OC2OC(C)CC(N(C)C)C2O)C(C)(OC(=O)NCc2ccc(C=Cc3ccc4ccccc4n3)cc2)CC(C)C(=O)C(C)C2CC(=O)OC12C` (centres unmarked) [Compound 36], the “MIC (μg/mL) A” value in test [1] was >16 µg/mL. In test [2], the “MIC (μg/mL) D” value was 0.25 µg/mL (≈ 0.283 µM). For the same molecule, in test [3], the “MIC (μg/mL) B” value was 4 µg/mL (≈ 4.52 µM). Further, in test [4], the “MIC (μg/mL) E” value worked out at 16 µg/mL (≈ 18.1 µM). Further, the “MIC (μg/mL) C” value in test [5] stood at 1 µg/mL (≈ 1.13 µM).
Consider `CC[C@H]1OC(=O)[C@H](C)C(=O)[C@H](C)[C@@H](OC2O[C@H](C)C[C@H](N(C)C)[C@H]2O)[C@](C)(OC(=O)NC/C=C/c2cn(-c3ncccn3)cn2)C[C@@H](C)C(=O)C(C)C2CC(=O)O[C@@]21C` (some centres unmarked) [Compound 37], for which the MIC in test [1] (Escherichia coli) was > 16 µg/mL; in test [2] (Streptococcus pneumoniae) it was 0.03 µg/mL (≈ 0.0364 µM); in test [3] (Staphylococcus aureus), 0.5 µg/mL (≈ 0.606 µM); in test [4] (Haemophilus influenzae) it was 4 µg/mL (≈ 4.85 µM); in test [5] (Enterococcus faecalis) it was 0.12 µg/mL (≈ 0.145 µM).
As for `CCC1OC(=O)C(C)C(=O)C(C)C(OC2OC(C)CC(N(C)C)C2O)C(C)(OC(=O)NCC=Cc2ccc3nccnc3c2)CC(C)C(=O)C(C)C2CC(=O)OC12C` (centres unmarked) [Compound 38], the “MIC (μg/mL) A” value in test [1] is >16 µg/mL. The “MIC (μg/mL) D” value in test [2] amounted to 0.03 µg/mL (≈ 0.0371 µM). In addition, the “MIC (μg/mL) B” value in test [3] came out at 0.5 µg/mL (≈ 0.618 µM). For the same molecule, the “MIC (μg/mL) E” value in test [4] amounted to 2 µg/mL (≈ 2.47 µM). The “MIC (μg/mL) C” value in test [5] turned out to be 0.12 µg/mL (≈ 0.148 µM).
Regarding `CCC1OC(=O)C(C)C(=O)C(C)C(OC2OC(C)CC(N(C)C)C2O)C(C)(OC(=O)NCC=Cc2ccnc3ccccc23)CC(C)C(=O)C(C)C2CC(=O)OC12C` (centres unmarked) [Compound 39], the “MIC (μg/mL) A” value in test [1] worked out at 16 µg/mL (≈ 19.8 µM). For the same molecule, in test [2], the “MIC (μg/mL) D” value was found to be 0.03 µg/mL (≈ 0.0371 µM). The “MIC (μg/mL) B” value in test [3] turned out to be 0.5 µg/mL (≈ 0.619 µM). For the same molecule, the “MIC (μg/mL) E” value in test [4] came to 4 µg/mL (≈ 4.95 µM). Moreover, in test [5], the “MIC (μg/mL) C” value was 0.12 µg/mL (≈ 0.149 µM).
Take `CCC1OC(=O)C(C)C(=O)C(C)C(OC2OC(C)CC(N(C)C)C2O)C(C)(OC(=O)NCC=Cc2cncc(-c3ncccn3)c2)CC(C)C(=O)C(C)C2CC(=O)OC12C` (centres unmarked) [Compound 40]: the “MIC (μg/mL) A” value in test [1] came out at 16 µg/mL (≈ 19.1 µM). Also, the “MIC (μg/mL) D” value in test [2] was found to be 0.03 µg/mL (≈ 0.0359 µM). Further, the “MIC (μg/mL) B” value in test [3] was determined as 0.25 µg/mL (≈ 0.299 µM). In test [4], the “MIC (μg/mL) E” value was 1 µg/mL (≈ 1.2 µM). Moreover, in test [5], the “MIC (μg/mL) C” value came to 0.12 µg/mL (≈ 0.144 µM).
